Experimental data published in US20240254118A1, “PRMT5 INHIBITORS AND USES THEREOF” (Gilead Sciences, Inc., priority 2022, published 2024).

Assays:
[1] = tested on: HCT116 MTAP-deleted cells; experiment: Cell viability assay (CellTiter-Glo, 7 days), HCT116 MTAP-deleted; conditions: Homo sapiens, HCT-116, 168 h
[2] = tested on: SDMA signal (PRMT5 inhibition) in HCT116 MTAP-deleted cells; experiment: Symmetric di-methyl arginine image-based high content screen assay (SDMA assay), HCT116 MTAP-deleted; assay type: cell-based; conditions: SDMA assay; for EC50: Homo sapiens, HCT-116, 72 h, 3 days of treatment, cell line not given, taken as HCT116 MTAP-deleted, read-out: EC50 (SDMA assay); for EC50 selectivity (SDMA assay): taken as HCT116 WT versus MTAP-deleted
Summary of the method: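 Read-out: per-cell mean SDMA immunofluorescence (Alexa Fluor 488 secondary), cells segmented by DAPI on a high-content imager. Compound exposure in HCT116 MTAP-deleted cells lasted until fixation on Day 3; overnight 4° C primary anti-SDMA antibody staining.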

| EC50 [2] [nM] | EC50 selectivity (SDMA assay) [2] | SMILES | CC50 [1] [nM] |
| --- | --- | --- | --- |
| 1 to 5 | 495 | Cn1ncc2c(N)nc3ccc(C(=O)N(Cc4nc(C(F)(F)F)cs4)N4CCCOC4=O)cc3c21 [Example 135, 4-amino-1-methyl-N-(2-oxo-1,3-oxazinan-3-yl)-N-((4-(trifluoromethyl)thiazol-2-yl)methyl)-1H-pyrazolo[4,3-c]quinoline-8-carboxamide] | 100 to 1000 |
| 1 to 5 | 724 | Cn1ncc2c(N)nc3ccc(C(=O)N(Cc4csc(C(F)(F)F)n4)N4CCCOC4=O)cc3c21 [Example 136, 4-amino-1-methyl-N-(2-oxo-1,3-oxazinan-3-yl)-N-((2-(trifluoromethyl)thiazol-4-yl)methyl)-1H-pyrazolo[4,3-c]quinoline-8-carboxamide] | 100 to 1000 |
| 1 to 5 | 159 | CN(C(=O)OC(C)(C)C)N(Cc1ccc(C(F)(F)F)cn1)C(=O)c1ccc2nc(N)c3cnn(C)c3c2c1 [Example 137, tert-butyl N-[(4-amino-1-methyl-pyrazolo[4,3-c]quinoline-8-carbonyl)-[[5-(trifluoromethyl)-2-pyridyl]methyl]amino]-N-methyl-carbamate] | < 100 |
| > 5 | 174 | Cn1ncc2c(N)nc3ccc(C(=O)N(Cc4ccc(C(F)(F)F)cn4)N4CCS(=O)(=O)CC4)cc3c21 [Example 138, 4-amino-N-(1,1-dioxo-1,4-thiazinan-4-yl)-1-methyl-N-[[5-(trifluoromethyl)-2-pyridyl]methyl]pyrazolo[4,3-c]quinoline-8-carboxamide] | > 1000 |
| > 5 | 20 | Cn1ncc2c(N)nc3ccc(C(=O)N(Cc4cn5ccccc5n4)N4Cc5ccccc5C4=O)cc3c21 [Example 139, 4-amino-N-(imidazo[1,2-a]pyridin-2-ylmethyl)-1-methyl-N-(1-oxoisoindolin-2-yl)pyrazolo[4,3-c]quinoline-8-carboxamide] | < 100 |

The next lines start with the compound.

| SMILES | EC50 [2] [nM] | EC50 selectivity (SDMA assay) [2] | CC50 [1] [nM] |
| --- | --- | --- | --- |
| Cn1cc(-c2ccc(CN(C(=O)c3ccc4nc(N)c5cnn(C)c5c4c3)N3CCCCC3=O)nc2)cn1 [Example 130, 4-amino-1-methyl-N-((5-(1-methyl-1H-pyrazol-4-yl)pyridin-2-yl)methyl)-N-(2-oxopiperidin-1-yl)-1H-pyrazolo[4,3-c]quinoline-8-carboxamide] | 1 to 5 | 34 | < 100 |
| Nc1nc2cc(F)c(C(=O)N3CCCCN3c3ccc(C(F)(F)F)cn3)cc2c2cscc12 [Example 131, (4-amino-7-fluoro-thieno[3,4-c]quinolin-8-yl)-[2-[5-(trifluoromethyl)-2-pyridyl]hexahydropyridazin-1-yl]methanone] | > 5 | 279 | > 1000 |
| Nc1nc2cc(F)c(C(=O)N3CCCN3c3ccc(C(F)(F)F)cn3)cc2c2cscc12 [Example 132, (4-amino-7-fluoro-thieno[3,4-c]quinolin-8-yl)-[2-[5-(trifluoromethyl)-2-pyridyl]pyrazolidin-1-yl]methanone] | > 5 | 3193 | > 1000 |
| Cn1ncc2c(N)nc3ccc(C(=O)N(Cc4ccc(C(F)(F)F)cn4)N4CCOC4=O)cc3c21 [Example 133, 4-amino-1-methyl-N-(2-oxooxazolidin-3-yl)-N-((5-(trifluoromethyl)pyridin-2-yl)methyl)-1H-pyrazolo[4,3-c]quinoline-8-carboxamide] | < 1 | 92 | < 100 |
| CN1CCN(N(Cc2ccc(C(F)(F)F)cn2)C(=O)c2cc3c(cc2F)nc(N)c2cnn(C)c23)C1=O [Example 134, 4-amino-7-fluoro-1-methyl-N-(3-methyl-2-oxoimidazolidin-1-yl)-N-((5-(trifluoromethyl)pyridin-2-yl)methyl)-1H-pyrazolo[4,3-c]quinoline-8-carboxamide] | 1 to 5 | 18 | < 100 |
